According to ChEMBL document CHEMBL1201862, “PubChem BioAssay data set” (2004):
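The compound was tested at five concentrations on cells cultured in 96-well plates, with a 48-hour exposure period. Here, GI50 denotes the concentration required for 50% inhibition of growth.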 Active and inactive are the calls of the source. Cut-off read from the data, not from the text of the source: active = GI50 up to about 1.1 µM and inactive = higher.

Key:
Experiment in all cases: inhibition of tumour cell growth, NCI panel, 48 h
PC-3 = tested on: PC-3
SK-MEL-2 = tested on: SK-MEL-2
A549 = tested on: A549
DU-145 = tested on: DU-145
UO-31 = tested on: UO-31
SR = tested on: SR
KM12 = tested on: KM12
NCI-H23 = tested on: NCI-H23
MCF7 = tested on: MCF7
SNB-19 = tested on: SNB-19
SN12C = tested on: SN12C
NCI/ADR-RES = tested on: NCI/ADR-RES
EKVX = tested on: EKVX
SF-295 = tested on: SF-295
Malme-3M = tested on: Malme-3M
HT-29 = tested on: HT-29
UACC-257 = tested on: UACC-257
NCI-H460 = tested on: NCI-H460
HCT-116 = tested on: HCT-116
SF-539 = tested on: SF-539

| Compound | GI50 (PC-3) | GI50 (SK-MEL-2) | GI50 (A549) | GI50 (DU-145) | GI50 (UO-31) | GI50 (SR) | GI50 (KM12) | GI50 (NCI-H23) | GI50 (MCF7) | GI50 (SNB-19) | GI50 (SN12C) | GI50 (NCI/ADR-RES) | GI50 (EKVX) | GI50 (SF-295) | GI50 (Malme-3M) | GI50 (HT-29) | GI50 (UACC-257) | GI50 (NCI-H460) | GI50 (HCT-116) | GI50 (SF-539) |
| --- | --- | --- | --- | --- | --- | --- | --- | --- | --- | --- | --- | --- | --- | --- | --- | --- | --- | --- | --- | --- |
| COC(=O)C1C=CN(N(C)C)C2=C1C(=O)c1c(O)cccc1C2=O (stereo not drawn) | 2.96 µM (inactive) | 2.31 µM (inactive) | 2.47 µM (inactive) | 1.58 µM (inactive) | 3.82 µM (inactive) | 0.152 µM (active) | 2.07 µM (inactive) | 1.63 µM (inactive) | 1.95 µM (inactive) | 2.34 µM (inactive) | 1.73 µM (inactive) | 2.22 µM (inactive) | 2.79 µM (inactive) | 1.65 µM (inactive) | 1.53 µM (inactive) | 1.49 µM (inactive) | 1.41 µM (inactive) | 1.04 µM (active) | 1.92 µM (inactive) |  |
| COC(=O)c1ccc(Oc2nc3ccc(C(F)(F)F)cc3nc2-c2ccccc2)cc1 | > 100 µM (inactive) |  | > 100 µM (inactive) | > 100 µM (inactive) | > 100 µM (inactive) | 92.3 µM (inactive) | > 100 µM (inactive) | > 100 µM (inactive) | 24.9 µM (inactive) |  | > 100 µM (inactive) | > 100 µM (inactive) | 55.5 µM (inactive) | > 100 µM (inactive) | > 100 µM (inactive) | > 100 µM (inactive) | > 100 µM (inactive) | 83.2 µM (inactive) | > 100 µM (inactive) | > 100 µM (inactive) |
| Cc1nc(O)c2c3c(sc2n1)CCCC3 | > 100 µM (inactive) | > 100 µM (inactive) | 78.5 µM (inactive) | > 100 µM (inactive) | 20.4 µM (inactive) | 27 µM (inactive) | > 100 µM (inactive) | > 100 µM (inactive) | 41.4 µM (inactive) | > 100 µM (inactive) | 51.5 µM (inactive) | > 100 µM (inactive) | 19.9 µM (inactive) | > 100 µM (inactive) | > 100 µM (inactive) | 54.7 µM (inactive) | > 100 µM (inactive) | 0.284 µM (active) | 36.7 µM (inactive) | 56.8 µM (inactive) |
| CCN(CC)CCC(=O)c1ccc(Oc2ccc(C)cc2)cc1 | 17.9 µM (inactive) | 33.2 µM (inactive) | > 100 µM (inactive) | 29.1 µM (inactive) |  | 26.2 µM (inactive) | 10.9 µM (inactive) | 17.7 µM (inactive) | 17.6 µM (inactive) | 18.5 µM (inactive) | 16.7 µM (inactive) | 23 µM (inactive) | 20 µM (inactive) | 17.5 µM (inactive) | 17.5 µM (inactive) | 18.9 µM (inactive) | 19.2 µM (inactive) |  | 17.3 µM (inactive) | 18.8 µM (inactive) |
| COc1ccc(Cn2c3ccc([N+](=O)[O-])cc3c(=O)n2Cc2ccccn2)cc1 | 85.9 µM (inactive) | > 100 µM (inactive) | > 100 µM (inactive) | > 100 µM (inactive) | > 100 µM (inactive) | 63 µM (inactive) | 92.5 µM (inactive) | 66.2 µM (inactive) | > 100 µM (inactive) | > 100 µM (inactive) | > 100 µM (inactive) | 39.7 µM (inactive) | 66.5 µM (inactive) | > 100 µM (inactive) | 80.9 µM (inactive) | > 100 µM (inactive) | 55.1 µM (inactive) | > 100 µM (inactive) | > 100 µM (inactive) | > 100 µM (inactive) |
| C[C@@H](c1ccccc1)N(CC#N)[C@H]1CCC[C@]1(O)/C=C/c1ccc2c(c1)OCO2 | > 25 µM (inactive) | > 25 µM (inactive) | > 25 µM (inactive) | > 25 µM (inactive) | > 25 µM (inactive) | > 25 µM (inactive) | > 25 µM (inactive) | > 25 µM (inactive) | 5.65 µM (inactive) | > 25 µM (inactive) | > 25 µM (inactive) | > 25 µM (inactive) | > 25 µM (inactive) | > 25 µM (inactive) | > 25 µM (inactive) | > 25 µM (inactive) | > 25 µM (inactive) | > 25 µM (inactive) | > 25 µM (inactive) |  |
| CCCCCCCCCCCCC/C=C(/COCC[N+](C)(C)C)OC(C)=O.CCCCCCCCCCCCCC/C(=C/OCC[N+](C)(C)C)OC(C)=O | 2.08 µM (inactive) |  | 1.71 µM (inactive) | 4.97 µM (inactive) | 14.3 µM (inactive) | 1.57 µM (inactive) | 1.46 µM (inactive) | 1.9 µM (inactive) | 1.9 µM (inactive) | 1.47 µM (inactive) | 3.01 µM (inactive) | 17.6 µM (inactive) | 3.1 µM (inactive) | 0.92 µM (active) | 5.68 µM (inactive) | 0.356 µM (active) | 2.99 µM (inactive) | 0.63 µM (active) | 0.643 µM (active) | 1.85 µM (inactive) |
| CC(=O)c1c(O)cc(O)c(-c2c(C)cc(O)c3c2C(=O)c2cccc(O)c2C3=O)c1O | 11 µM (inactive) | 15.9 µM (inactive) | 14.6 µM (inactive) | 16.3 µM (inactive) | 14.5 µM (inactive) | 16.3 µM (inactive) | 16.2 µM (inactive) |  | 14.8 µM (inactive) | 21 µM (inactive) | 19.1 µM (inactive) | 15.8 µM (inactive) | 16.1 µM (inactive) | 13.1 µM (inactive) | 11.9 µM (inactive) | 17.1 µM (inactive) | 19.9 µM (inactive) | 15 µM (inactive) | 15.4 µM (inactive) | 15.3 µM (inactive) |
| c1ccc2c(c1)-c1ccccc1C2NC1=NCCO1 | 20.5 µM (inactive) | 18.8 µM (inactive) | 32.4 µM (inactive) | 52.6 µM (inactive) | 24.1 µM (inactive) | 30.3 µM (inactive) | 14.2 µM (inactive) | 34.1 µM (inactive) | 22.5 µM (inactive) | 36.6 µM (inactive) | 33.7 µM (inactive) | 23.4 µM (inactive) | 40.6 µM (inactive) | 31.4 µM (inactive) | 13.1 µM (inactive) | 21.7 µM (inactive) |  | 14 µM (inactive) | 16.7 µM (inactive) | 21.7 µM (inactive) |
| CS(=O)(=O)Nc1ccc2c(c1)N(S(C)(=O)=O)CC2COS(C)(=O)=O (stereo not drawn) | > 100 µM (inactive) | 19.9 µM (inactive) | > 100 µM (inactive) | 58.9 µM (inactive) | > 100 µM (inactive) | 23.3 µM (inactive) | > 100 µM (inactive) | 45.1 µM (inactive) | > 10 µM (inactive) |  | > 100 µM (inactive) | > 100 µM (inactive) | > 100 µM (inactive) | 58.7 µM (inactive) | 39.9 µM (inactive) | > 100 µM (inactive) | > 100 µM (inactive) | 90.8 µM (inactive) | 54.6 µM (inactive) | 41.9 µM (inactive) |
| CC(C)(C)C1CCC2c3c([nH]c4ccccc34)C3C(=O)N(c4ccc([N+](=O)[O-])cc4)C(=O)C3C2C1 (stereo not drawn) | 26.9 µM (inactive) | 11.8 µM (inactive) | 10.8 µM (inactive) | 26.7 µM (inactive) |  | 3.27 µM (inactive) | 1.77 µM (inactive) | 10.3 µM (inactive) | 2.79 µM (inactive) | 22 µM (inactive) | 4.86 µM (inactive) | 14.9 µM (inactive) | 25.3 µM (inactive) | 27.2 µM (inactive) | 20.5 µM (inactive) | 3.89 µM (inactive) | 29.1 µM (inactive) | 13.6 µM (inactive) | 8.09 µM (inactive) | 20.7 µM (inactive) |
| CCOC(=O)/C(=C\c1ccc(CO)o1)P(=O)(OCC)OCC | 5.43 µM (inactive) | 25.2 µM (inactive) | > 100 µM (inactive) | 41.9 µM (inactive) |  | 41.9 µM (inactive) | 33.3 µM (inactive) | 22.3 µM (inactive) | 43.9 µM (inactive) | 63.2 µM (inactive) | 30.5 µM (inactive) | 22.2 µM (inactive) | > 100 µM (inactive) | > 100 µM (inactive) | 20.8 µM (inactive) | 33.2 µM (inactive) | 44.6 µM (inactive) | 17 µM (inactive) | 24.4 µM (inactive) | 19.7 µM (inactive) |
| CC(=O)n1[nH]c(=O)n(-c2ccccc2)c1=O | > 100 µM (inactive) | > 100 µM (inactive) | > 100 µM (inactive) | > 100 µM (inactive) | > 100 µM (inactive) | > 100 µM (inactive) | > 100 µM (inactive) | > 100 µM (inactive) | > 100 µM (inactive) | > 100 µM (inactive) | > 100 µM (inactive) | > 100 µM (inactive) | > 100 µM (inactive) | > 100 µM (inactive) | > 100 µM (inactive) | > 100 µM (inactive) | > 100 µM (inactive) | > 100 µM (inactive) | > 100 µM (inactive) |  |
| CCc1n[nH]c(=O)n1NC(=O)/C=C\C(=O)O | > 100 µM (inactive) | > 100 µM (inactive) | > 100 µM (inactive) | > 100 µM (inactive) |  | > 100 µM (inactive) |  | > 100 µM (inactive) | > 100 µM (inactive) |  | > 100 µM (inactive) | > 100 µM (inactive) | > 100 µM (inactive) | > 100 µM (inactive) | > 100 µM (inactive) | > 100 µM (inactive) | > 100 µM (inactive) | > 100 µM (inactive) | > 100 µM (inactive) | > 100 µM (inactive) |
| c1cncc(C2(c3cc4ccccc4[nH]3)COCO2)c1 (stereo not drawn) | 94.2 µM (inactive) | > 100 µM (inactive) | 94.2 µM (inactive) | > 100 µM (inactive) | 58.3 µM (inactive) | > 100 µM (inactive) | > 100 µM (inactive) | > 100 µM (inactive) | > 100 µM (inactive) | > 100 µM (inactive) |  | > 100 µM (inactive) | > 100 µM (inactive) | > 100 µM (inactive) | > 100 µM (inactive) | > 100 µM (inactive) | > 100 µM (inactive) | > 100 µM (inactive) | 71 µM (inactive) | > 100 µM (inactive) |
